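In this assay, cells in 96-well plates receive the compound at five concentrations for 48 hours. Endpoints are linearly interpolated between the surrounding concentrations. At the TGI there is no net growth.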
How the values were obtained:
Assay in all cases: DTP human tumour cell line panel, 48 h
[1] = system: SW-620 colon
[2] = system: HT29 colon
[3] = system: SF-268 CNS
[4] = system: HS 578T breast
[5] = system: SF-539 CNS
[6] = system: CCRF-CEM leukemia
[7] = system: MDA-N
[8] = system: NCI-H460 lung
[9] = system: OVCAR-8 ovarian
[10] = system: T-47D breast
[11] = system: NCI/ADR-RES ovarian
[12] = system: MCF7 breast
[13] = system: NCI-H23 lung
[14] = system: TK-10 renal
[15] = system: SN12C renal
[16] = system: MOLT-4 leukemia
[17] = system: RXF 393 renal
[18] = system: KM12 colon
[19] = system: CAKI-1 renal
[20] = system: SK-MEL-2 melanoma

Row | Compound | TGI [1] [µM] | TGI [2] [µM] | TGI [3] [µM] | TGI [4] [µM] | TGI [5] [µM] | TGI [6] [µM] | TGI [7] [µM] | TGI [8] [µM] | TGI [9] [µM] | TGI [10] [µM] | TGI [11] [µM] | TGI [12] [µM] | TGI [13] [µM] | TGI [14] [µM] | TGI [15] [µM] | TGI [16] [µM] | TGI [17] [µM] | TGI [18] [µM] | TGI [19] [µM] | TGI [20] [µM]
1 | CCn1c(-c2cc(OC)cc(OC)c2)nc2c1C(=O)c1ccccc1C2=O | > 100 | > 100 | > 100 | > 100 | > 100 | > 100 | > 100 | > 100 | > 100 | > 100 | > 100 | > 100 | > 100 | > 100 | > 100 | > 100 | 69.2 | > 100 | – | –
2 | CC(=O)Nc1cc(C(=O)Nc2cc(C(=O)N3CC(CCl)c4c3cc(N)c3ccccc43)nn2C)nn1C (configuration not stated) | – | 1.21 | 0.128 | 1.55 | 0.0549 | 0.0491 | 0.389 | 0.13 | 0.308 | 0.0931 | 7.49 | > 66.5 | 0.0678 | > 100 | 0.0102 | 0.0687 | 0.226 | 7.83 | 0.525 | 0.427
3 | COc1cc(-c2cc(=O)c3c(OC)c(OC)c(OC)c(OC)c3o2)c(OC)c(OC)c1OC | > 100 | > 100 | > 100 | > 100 | > 100 | > 100 | > 100 | > 100 | > 100 | 51 | 66.8 | > 100 | – | > 100 | > 100 | > 100 | > 100 | 90.3 | > 100 | 49.4
4 | CCSc1n/c(=C\c2ccco2)c2nnnn12 | > 100 | > 100 | > 100 | > 100 | > 100 | > 100 | > 100 | – | > 100 | > 100 | > 100 | > 100 | > 100 | > 100 | > 100 | > 100 | > 100 | > 100 | > 100 | > 100
5 | CCOC(CCNCC(OCC)OCC)OCC | – | > 10 | > 10 | > 10 | > 10 | > 10 | > 10 | > 10 | > 10 | > 10 | > 10 | > 10 | > 10 | > 10 | > 10 | > 10 | > 10 | > 10 | > 10 | > 10
6 | C=C(C)C(CC=C(C)C)CC12CC(CC=C(C)C)C(C)(C)C(CC=C(C)C)(C(=O)C(Cc3ccc(O)c(O)c3)=C1O)C2=O (configuration not stated) | > 100 | > 100 | > 100 | > 100 | > 100 | > 100 | > 100 | > 100 | > 100 | > 100 | > 100 | > 100 | > 100 | > 100 | – | > 100 | > 100 | > 100 | > 100 | –
7 | CNc1ccc(OC)cc1S(=O)(=O)c1ccccc1[N+](=O)[O-] | > 100 | > 100 | > 100 | > 100 | > 100 | > 100 | > 100 | > 100 | > 100 | > 100 | > 100 | > 100 | > 100 | > 100 | > 100 | > 100 | > 100 | – | – | > 100
8 | COCCOCc1nc(C#N)c(N)o1 | > 100 | > 100 | > 100 | > 100 | > 100 | > 100 | > 100 | > 100 | – | > 100 | > 100 | > 100 | > 100 | > 100 | > 100 | > 100 | > 100 | > 100 | > 100 | > 100
9 | CC(=O)OCc1cc(CCC(=O)NCCNc2c3ccccc3nc3ccccc23)cc(COC(C)=O)c1O[Si](C)(C)C(C)(C)C | 30.1 | 7.38 | – | 13.9 | 4.99 | 20.5 | 21.9 | 21.6 | 39.9 | 5.73 | 45.9 | 4.57 | 34.7 | 23.2 | 3.38 | 5.25 | 9.37 | 15.4 | – | 23.8
10 | Cc1cc(N(CCC#N)CCC#N)ccc1/C(N=Nc1ccc([N+](=O)[O-])cc1)=N\NC(=O)c1cc(Cl)ccc1C(=O)c1ccccc1 | 82.2 | 27.4 | 42.3 | 68 | – | 12.5 | > 100 | 43.2 | 26.1 | 50.3 | 50.9 | 26.1 | 38.6 | > 100 | > 100 | 38.8 | 57.9 | 47.8 | 62.5 | 57.8
11 | Clc1c(Cl)c(Cl)c2nn(C3CCCO3)nc2c1Cl (configuration not stated) | – | > 100 | > 100 | 49.5 | > 100 | > 100 | > 100 | – | > 100 | > 100 | > 100 | > 100 | > 100 | > 100 | > 100 | > 100 | > 100 | – | > 100 | > 100
12 | COc1ccc(C(=O)Sc2c(-c3ccccc3)c(=O)n(-c3ccccc3)c(=S)n2-c2ccccc2)cc1 | > 100 | > 100 | > 100 | > 100 | 35.6 | > 100 | > 100 | > 100 | > 100 | > 100 | > 100 | > 100 | > 100 | > 100 | > 100 | 56.1 | 98.4 | > 100 | > 100 | –
13 | CC1=C(C#N)C(C#N)(C#N)C(NN(C)C)C1 (configuration not stated) | > 100 | 38.3 | 78.7 | > 100 | > 100 | > 100 | 21.9 | – | > 100 | 27.8 | > 100 | 77.3 | 40.8 | 34 | 27.3 | 79.5 | 31.3 | 31.8 | 7 | 39.5
14 | COc1ccc(N=C2SC(=N/N=c3\sc4ccccc4n3C)SC2=Nc2ccc(OC)cc2)cc1 | > 100 | > 100 | > 100 | > 100 | > 100 | – | > 100 | > 100 | > 100 | > 100 | > 100 | > 100 | > 100 | > 100 | > 100 | > 100 | > 100 | > 100 | > 100 | > 100
15 | CC(=O)NC1C(OCc2ccccc2)OC(CO)C(O)C1OC(C)C(=O)NC(C)C(=O)NC(CCC(=O)NCCCNc1c2ccccc2nc2cccc([N+](=O)[O-])c12)C(N)=O (configuration not stated) | 11.6 | > 100 | 6.32 | 40.4 | 19.3 | > 100 | 2.77 | 1.96 | 9.07 | > 100 | 65.7 | > 100 | 11.8 | 9.97 | 11 | > 100 | 3.04 | 23.5 | 7.87 | –
16 | O=C1N=c2ccccc2=C1c1c(O)[nH]c2ccccc12 | > 100 | 17.8 | > 100 | > 100 | – | > 100 | > 100 | 59.3 | 66.7 | 3.77 | 48.2 | 25.3 | 69.2 | 72.7 | 51.5 | > 100 | 16.3 | > 100 | > 100 | 58.9
17 | CCOC(=O)C1(Cc2ccc3c(c2)CCC3)Cc2cc3c(cc2C1)CCC3 | > 100 | 37.9 | > 100 | > 100 | 99.4 | 35 | > 100 | 93.5 | > 100 | 50.7 | > 100 | 40.4 | > 100 | > 100 | > 100 | 33 | – | > 100 | > 100 | > 100
18 | C=CCNC1=C2C[C@@H](C)C[C@@H](OC)[C@H](OC(=O)CCCCN)[C@H](C)/C=C(\C)[C@@H](OC(N)=O)[C@H](OC)/C=C\C=C(/C)C(=O)NC(=CC1=O)C2=O | 55.1 | 14.8 | 32.8 | 58.4 | – | 56.4 | 22 | 26 | 37.3 | 29.9 | > 100 | 12.4 | 30 | 29 | 27.1 | 52.9 | 29.2 | 18 | 33.2 | 9.98
19 | CN1C(=O)N/C(=C\c2ccc(S(=O)(=O)NN)cc2)C1=O | > 100 | > 100 | > 100 | > 100 | – | > 100 | > 100 | – | > 100 | > 100 | > 100 | > 100 | > 100 | > 100 | > 100 | > 100 | > 100 | > 100 | > 100 | > 100
20 | CC1(CCCO)CCCCCC(C)(CCCO)C1=O (configuration not stated) | > 100 | > 100 | > 100 | > 100 | – | > 100 | > 100 | > 100 | > 100 | > 100 | > 100 | > 100 | > 100 | – | > 100 | > 100 | > 100 | > 100 | > 100 | > 100
21 | COc1ccc2nc3ccc(OC)cc3c(S(=O)CCCl)c2c1 (configuration not stated) | – | 4.39 | 28.2 | 6.02 | 4.59 | > 23.8 | 7.58 | > 63.7 | 9.2 | 5.62 | 36.8 | > 21.4 | 36.1 | 8.26 | 3.72 | > 20.7 | 16.2 | 37.3 | 6.9 | 35.3
22 | CN(C)Cc1cc(C(=O)/C=C/c2ccc(Cl)cc2)cc(CN(C)C)c1O | 20.5 | 18.6 | 71.1 | 49.3 | 38.7 | 94.2 | 25.3 | 21.8 | 51.3 | > 100 | 54.2 | 39.6 | 39.4 | 39 | 28.1 | 49.9 | 30.3 | 19.6 | 20 | –
23 | O=C(CC(=O)Nc1cccc(C(=O)O)c1)Nc1cccc(C(=O)O)c1 | > 100 | > 100 | > 100 | > 100 | > 100 | > 100 | > 100 | > 100 | > 100 | > 100 | > 100 | > 100 | > 100 | > 100 | > 100 | > 100 | – | > 100 | > 100 | > 100
24 | O=C(O)c1n[nH]nc1Cl | > 100 | > 100 | > 100 | > 100 | > 100 | > 100 | > 100 | > 100 | > 100 | > 100 | > 100 | > 100 | > 100 | > 100 | > 100 | – | > 100 | > 100 | – | > 100

From PubChem BioAssay (NCI)
